In patent US20250344698A1, “A METHOD OF CONTROLLING WEEDS” (SYNGENTA CROP PROTECTION AG, priority 2022, published 2025):

System: A. tuberculatus, about 60-70% of which contain the ΔG210 mutation
Test: Field trial, Illinois USA, visual % weed control
Format: in vivo, Amaranthus tuberculatus
Conditions: visually assessed 14 days after application

Compound: COC(=O)CCNC(=O)C(C)Sc1cc(-n2c(=O)cc(C(F)(F)F)n(C)c2=O)c(F)cc1Cl (stereo not drawn) [Tiafenacil]
- Control (%) (use rate 50 g ai/ha): 33%
- Control (%) (use rate 100 g ai/ha): 30%
- Control (%) (use rate 150 g ai/ha): 33%
